From patent publication US20140039056A1, “BROMFENAC ORGANIC SALTS AND PREPARATION METHOD, COMPOSITION AND USE THEREOF” (SHENYANG XINGQI PHARMACEUTICAL CO., LTD., priority 2010, published 2014)
Where a name gives a salt, the structure may show the parent alone.

Legend:
[1] = Tissue distribution test (muscle tissue under skin after application to the back); settings: rats; for Concentration in muscle tissue: n = 3
Method: Preparation of bromfenac salt solutions: 0.25 g samples of bromfenac sodium, bromfenac diethylamine salt as prepared in Example 1 and bromfenac trometamol salt as prepared in Example 2 were precisely weighed separately, placed in 25 ml volumetric flasks respectively, metered volume to obtain stock solutions for standby use.
Chromatography conditions: detector: ultraviolet absorption detector (wavelength: 266 nm). Chromatography column: octadecyl silica gel column (4.6 mm×150 mm, 5 μm). Mobile phase: precisely weighed ammonium acetate 3.85 g, added with water to the metered volume of 1000 mL. 700 mL of this solution was taken and added with 300 mL acetonitrile. Flow rate: 1.0 mL/min.
Plotting standard curves: 200 μl samples of blank tissue were taken, separately added with 50 μl of series standard solutions of bromfenac sodium, bromfenac diethylamine salt and bromfenac trometamol salt separately, added with 50 μl of internal standard respectively, to form sample solutions with equivalent tissue concentrations of bromfenac sodium, bromfenac diethylamine salt and bromfenac trometamol salt as 50, 100, 250, 500, 1000, 5000, 10000 ng/ml, which were separately weighed precisely to take 20 μl and injected into chromatography and separately assayed.
1) On the test day, removed short hair on the back of rats were with a electric hair clipper to expose surface layer of skin, while trying to avoid breaking skin during hair cutting, and then washed unhairing region with a large quantity of water;
2) anesthetized rats using 10% chloral hydrate in anesthetic agent dose of 3.5 ml/kg;
3) randomly divided the rats into 3 groups, 15 rats per group. On the unhairing region of back, the rats of 3 groups were separately administered with 1 g of bromfenac sodium, bromfenac diethylamine and Bromfenac trometamol preparations, and the administration regions were covered with freshness-keeping plastic film;
4) executed rats before administration (0 hours) and at 2 hours, 4 hours, 6 hours, 8 hours, 10 hours after administration, took muscle tissues under skin of administration sites;
5) simply washed muscle tissues with physiological saline, then absorbed excessive water with filter paper;
6) precisely weighed 1 g of muscle tissue, cut into pieces, homogenizing with 3 ml of physiological saline in electric grinding mill. A homogeneous muscle tissue homogenate was obtained after muscle tissue was ground completely;
7) took […] of tissue sample, added with 50 μL of an internal standard solution, mixed homogeneously, added with 1 mL of methanol, mixed by vortex for 1 min, centrifuged for 5 min (3500 rpm), separated and placed upper layer organic phase into another tube, blow-dried with 37° C. air, dissolved the residue by adding 100 μL of mobile phase, mixed by vortex, and took 20 μL to perform HPLC analysis.

[2] = test system: swelling of auricle caused by xylene in mice; test: Test of effects on swelling of auricle caused by xylene in mice; format: in vivo
Method: Test grouping: 40 mice, bodyweight 20±2 g, randomly divided into 4 groups, 10 mice per group, i.e., physiological control group, bromfenac sodium group, bromfenac diethylamine salt group, and bromfenac trometamol salt group.
Test method: the mice of each test group were administered with physiological saline, solution of bromfenac sodium, solution of bromfenac diethylamine salt and solution of bromfenac trometamol salt, twice per day via lavage in lavage dose of 50 mL/Kg, for consecutive 7 days, 1 h after the last administration, xylene in dose of 0.05 mL/mouse was coated on right ears of mice of each test group, while their left ears were used as control, the mice were executed after 30 min, ear parts that were at the same place and had the same area were cut from both ears by a puncher with a diameter of 6 mm, and weighed with ten thousandth electronic analytical balance, and the weight difference between two ears was used as index of swelling.

[3] = test system: swelling of foot caused by egg white in rats; test: Test of effects on swelling of foot caused by egg white in rats; format: in vivo
Method: Test grouping: 40 rats, bodyweight 200-220 g, randomly divided into 4 groups, 10 rats per group, i.e., physiological saline control group, bromfenac sodium group, bromfenac diethylamine salt group, and bromfenac trometamol salt group.
The rats of each test group were administered with physiological saline, solution of bromfenac sodium, solution of bromfenac diethylamine salt and solution of bromfenac trometamol salt, twice per day via lavage in lavage dose of 50 mL/Kg, for consecutive 7 days, before the last administration, volumes of voix pedis of normal right and left hindfeet of each rat were measured, and the measurement was performed by blood capillary volume method. The linedrawing position at ankle joint of rat was adjusted so that the volumes of voix pedis of right and left hindfeet were about 1 mL, 0.5 hours after the last administration, 0.1 mL of newly prepared 10% egg white liquid was subcutaneously injected to voix pedis of right and left hindfeet of rats respectively, and the volumes of voix pedis of right and left hindfeet of rats were measured again at 0.5, 1, 2, 4, 6 hours after injection of egg white, and swelling rate was calculated (voix pedis swelling rate=voix pedis volume at different time after injection of egg white−voix pedis volume at the same side before injection of egg white/voix pedis volume at the same side before injection of egg white), and the results were shown in Table 5.

[4] = Chemical stability in solid state (accelerated stability test at 60° C.); format: physicochemical
Method: HPLC Analysis Conditions:
Detector: ultraviolet absorption detector (wavelength: 266 nm).
Chromatography column: octadecyl silica gel column (4.0 mm×150 mm, 5 um).
Mobile phase: 3.85 g of ammonium acetate was precisely weighed, added with water to reach the metered volume of 1000 mL.

[5] = Chemical stability in aqueous state (25° C., dark); format: physicochemical
[6] = 1.0 hours after injection of egg white
[7] = 2.0 hours after injection of egg white
[8] = 4.0 hours after injection of egg white
[9] = 6.0 hours after injection of egg white

Nc1c(CC(=O)O)cccc1C(=O)c1ccc(Br)cc1 [Bromfenac diethylamine salt, bromfenac diethylamine salt]
Concentration in muscle tissue ([1]; 0 hours (before administration)): 0 ng/mL | Concentration in muscle tissue ([1]; 2 hours after administration of 1 g preparation on back skin): 1092.1 ng/mL | Concentration in muscle tissue ([1]; 4 hours after administration of 1 g preparation on back skin): 2657.6 ng/mL | Concentration in muscle tissue ([1]; 6 hours after administration of 1 g preparation on back skin): 1803.7 ng/mL | Concentration in muscle tissue ([1]; 8 hours after administration of 1 g preparation on back skin): 1108.3 ng/mL | Concentration in muscle tissue ([1]; 10 hours after administration of 1 g preparation on back skin): 262.4 ng/mL | time at which distribution in tissue reaches maximum values (peak concentrations) ([1]; muscle tissue under skin): 2 h | concentration distributed in tissue compared with bromfenac sodium ([1]; muscle tissue): significantly greater | effect on swelling of auricle caused by xylene in mice ([2]; in words): significant inhibition effects | Swelling degree ([2]; weight difference between two ears, lavage 50 mL/Kg of 1 g/100 ml solution twice per day for 7 days, mice): 5.37 ± 0.50 mg | voix pedis swelling rate ([3]; 0.5 hours after injection of egg white): (0.65 ± 0.08) | voix pedis volume ([3]; 0.5 hours after injection of egg white, lavage 50 mL/Kg twice per day for 7 days): 1.61 ± 0.08 mL | voix pedis swelling rate [3, 6]: (0.58 ± 0.08) | voix pedis volume [3, 6]: 1.55 ± 0.09 mL | voix pedis swelling rate [3, 7]: (0.41 ± 0.08) | voix pedis volume [3, 7]: 1.38 ± 0.06 mL | voix pedis swelling rate [3, 8]: (0.23 ± 0.05) | voix pedis volume [3, 8]: 1.21 ± 0.06 mL | voix pedis swelling rate [3, 9]: (0.08 ± 0.06) | voix pedis volume [3, 9]: 1.06 ± 0.08 mL | voix pedis swelling rate ([3]; Normal rats): (0.65 ± 0.08) | voix pedis volume ([3]; Normal rats (before egg white), lavage 50 mL/Kg twice per day for 7 days): 1.61 ± 0.08 mL | effect on voix pedis swelling caused by egg white in rats ([3]; within 0.5 hours to 6 hours, versus physiological saline control group, in words): significantly inhibit | content (HPLC), solid state ([4]; 60° C., 1 week): 99.5% | content (HPLC), solid state ([4]; 60° C., 2 weeks): 99.3% | content (HPLC), solid state ([4]; 60° C., 3 weeks): 99.2% | content (HPLC), solid state ([4]; Initial): 99.5% | change of content in accelerated test at 60° C. ([4]; solid state, in words): no significant substantial change | content (HPLC), aqueous state ([5]; 25° C., dark, 1 week): 99.5% | content (HPLC), aqueous state ([5]; 25° C., dark, 2 weeks): 99.4% | content (HPLC), aqueous state ([5]; 25° C., dark, 3 weeks): 99.2% | content (HPLC), aqueous state ([5]; Initial): 99.5% | degradation products and content changes in aqueous solution ([5]; dark conditions, in words): not observed
